In brackets after ≈: the same amount, converted by molar mass. Read-outs that look alike come from different tables or passages of the source.
What was measured:
KB cells = experiment: Suppression of KB cell proliferation in vitro; type: cell-based; details: Homo sapiens, 72 h, 3 days exposure, Trypan Blue dye-exclusion, read-out: KB IC50 (50% inhibition density to tumor cell proliferation)
Procedure: In a cultivation device (5% CO2, 37° C.), KB cells (1×10^4 cells) were cultivated for 24 hours in a culture tube with 1 ml of Eagle culture medium added 10% ox serum, the used culture medium was thrown away to change with a fresh culture medium (0.9 ml), and then 0.1 ml of a similar culture fluid containing each testing compound prepared by the process as described in the Examples was added to cultivate the same for further 3 days. Thereafter, living cells were dyed with Tripan Blue and measured same through a dye-exclusion method.
A control was treated in a manner similar to the above, except that a culture fluid containing no compound of the invention was added.
50% inhibition density (IC50) to the tumor cell proliferation was decided through the tests between the testing group and the control group to obtain results as shown in following Table 1.

Colon-38 carcinoma = experiment: Anti-tumor action to Colon-38 carcinoma; type: in vivo, BDF1 mice; details: oral, tumor weight at 28th day
Procedure: 0.02 ml of 10(W/V)% cell suspension prepared from a solid cancer cell (Colon-38 carcinoma) were transplanted under skin of BDF1 mice (20-21 g, age of about 5 weeks), and each of testing compounds was orally dosed to the mice at 1st, 5th and 9th day after the transplantation. A major and minor axes of the cancerous tumor were measured at 11th, 14th, 21st, 25th and 28th day after the transplantation to calcurate volume of the tumor in accordance with the following.
At 28th day from the transplantation, the mice were killed and each of the cancerous tumors was extracted to measure its weight and to determine an inhibitation ratio in comparison with a non-treated control group.

L-1210 leukemia = experiment: Anti-tumor action to L-1210 leukemia; type: in vivo, BDF1 female mice; details: Mus musculus, L1210, oral; for ILS at 250 mg/kg/day: 250 mg/kg/day × 3 (1st, 5th, 9th day); for ILS at 500 mg/kg/day: 500 mg/kg/day × 3 (1st, 5th, 9th day)
Procedure: L-1210 leukemia cell (1×10^5 cells) was transplanted in a abdominal cavity of BDF1 female mice (20-21 g, age of about 5 weeks), and each of testing compounds was orally dosed in 250 mg/kg or 500 mg/kg at 1st, 5th and 9th day after the transplantation to check days of life of the mice. [formula]

B-16 melanoma = experiment: Anti-tumor action to B-16 melanoma; type: in vivo, BDF1 female mice; details: oral, tumor weight at 21st day; for inhibition in vivo at 250 mg/kg/day: 250 mg/kg/day × 3
Source text: B-16 melanoma (1×10^5 cells) was transplanted under skin of BDF1 female mice (age of about 5 weeks), and each of testing compounds was orally dosed at 1st, 5th and 9th day after the transplantation. At 21st day after the transplantation, the mice were killed to measure a weight of the cancerous tumor and to finally determine an inhibition ratio.

Acute toxicity = type: in vivo, CrJ/CDI female mice; details: mouse, in vivo; oral gavage, suspended in 0.1% P-1570, female mice, 21 days observation
Procedure: Each of testing compounds suspended in 0.1% P-1570 was orally and forcedly dosed through a gastric probe to CrJ/CDI female mice (21 to 22 g, age of about 5 weeks). An identification number was given to each mouse, and a weighing and observation on general behavior were carried out just before the dosage and each day after the same. Each of died mice was subjected without delay to an autopsy to check the same, more particularly in detail on enterona. All of living mice were killed at 21st day from the dosage to carry out an autopsy for checking the same, more particularly on entrails.
An LD50 was calculated in accordance with the Leed and Munch's method.
A similar test was carried out on each controls of 1-[2-[(2-trimethylsilylethyl)thio]ethylcarbamoyl]-5-fluorouracil and 1-hexylcarbamoyl-5-fluorouracil (HCFU) which is one of exemplary anti-tumor agents.

Lewis lung carcinoma = experiment: Anti-tumor action to Lewis lung carcinoma (primary tumor weight and metastasis); type: in vivo, BDF1 mice; details: Mus musculus, po, 504 h
Source text: Lewis lung carcinoma (1×10^5 cells) was transplanted under skin of right ear of BDF1 mice (age of about 5 weeks), and each of testing compounds was orally dosed 10 times from 1st to 10th day after the transplantation. At 21st day after the transplantation, the mice were killed to measure a weight of the primarly tumor and to extract a lung. The lung was fixed in a conventional manner to count a number of metastasis on cancerous cells with use of a stereomicroscope having a low magnification. An anti-tumor action of each compound was expressed with an inhibition in weight of the primarly tumor and an inhibition of the metastasis.

MM-46 adenocarcinoma = experiment: Anti-tumor action to MM-46 adenocarcinoma; type: in vivo, C3H/He female mice; details: oral, 250 mg/kg/day × 3 (1st, 5th, 9th day); days to death, testing vs control group
Source text: MM-46 adenocarcinoma (1×10^6 cells) was transplanted under skin of C3H/He female mice (age of about 5 weeks), and each of testing compounds was orally dosed at 1st, 5th and 9th day after the transplantation to check days of life on the mice.
T: days to death on testing group, and
C: days to death on control group.

[1] = Mus musculus, B16, 504 h, 300 mg/kg/day × 3, read-out: B-16 melanoma Inhibition ratio
[2] = 13.5 mg/kg/day × 10 + Amputation, 21st day, read-out: Inhibition Ratio weight LLC
[3] = 13.5 mg/kg/day × 10 + Amputation, lung, 21st day, printed in parentheses, read-out: Inhibition Ratio metastasis
[4] = 27 mg/kg/day × 10 + Amputation, 21st day, read-out: Inhibition Ratio weight LLC
[5] = 27 mg/kg/day × 10 + Amputation, lung, 21st day, printed in parentheses, read-out: Inhibition Ratio metastasis
[6] = 27 mg/kg/day × 10, 21st day, read-out: Inhibition Ratio weight LLC
[7] = 27 mg/kg/day × 10, lung, 21st day, read-out: Inhibition Ratio metastasis
[8] = 54 mg/kg/day × 10, 21st day, read-out: Inhibition Ratio weight LLC
[9] = 54 mg/kg/day × 10, lung, 21st day, read-out: Inhibition Ratio metastasis
[10] = Mus musculus, B16, 504 h, read-out: B-16 melanoma Inhibition ratio

SMILES	IC50 (KB cells) [µg/mL]	ILS at 250 mg/kg/day (L-1210 leukemia; read-out: L-1210 ILS) [%]	ILS at 250 mg/kg/day (L-1210 leukemia; read-out: L-1210 Judgement) [%]	ILS at 500 mg/kg/day (L-1210 leukemia; read-out: L-1210 ILS) [%]	ILS at 500 mg/kg/day (L-1210 leukemia; read-out: L-1210 Judgement) [%]	inhibition in vivo at 300 mg/kg/day (B-16 melanoma; [1]) [%]	LD50 at 504 h (Acute toxicity) [mg/kg]	inhibition in vivo at 13.5 mg/kg/day (Lewis lung carcinoma; [2]) [%]	inhibition in vivo at 13.5 mg/kg/day (Lewis lung carcinoma; [3]) [%]	inhibition in vivo at 27 mg/kg/day (Lewis lung carcinoma; [4]) [%]	inhibition in vivo at 27 mg/kg/day (Lewis lung carcinoma; [5]) [%]	inhibition in vivo at 27 mg/kg/day (Lewis lung carcinoma; [6]) [%]	inhibition in vivo at 27 mg/kg/day (Lewis lung carcinoma; [7]) [%]	inhibition in vivo at 54 mg/kg/day (Lewis lung carcinoma; [8]) [%]	inhibition in vivo at 54 mg/kg/day (Lewis lung carcinoma; [9]) [%]	inhibition in vivo at 250 mg/kg/day (B-16 melanoma; [10]) [%]	other results
CC[Si](CC)(CC)CCSCCNC(=O)n1cc(F)c(=O)[nH]c1=O [Example 2, 5-Fluoro-3,4-dihydro-2,4-dioxo-N-[2-[[(2-triethylsilyl)ethyl]thio]ethyl]-1(2H)-pyrimidinecarboxamide]	13 (≈ 34.6 µM)	19	< 25	96	50 to 100	47.2	1540										inhibition in vivo at 300 mg/kg/day (Colon-38 carcinoma; Mus musculus, 672 h, 300 mg/kg/day × 3, read-out: colon-38 Inhibition ratio): 71.9%; inhibition in vivo at 14 mg/kg/day (Lewis lung carcinoma; 14 mg/kg/day × 10, 21st day, read-out: Inhibition Ratio weight LLC): 0%; inhibition in vivo at 14 mg/kg/day (Lewis lung carcinoma; 14 mg/kg/day × 10, lung, 21st day, read-out: Inhibition Ratio metastasis): 45.2%
CC(C)[Si](C)(C)CCSCCNC(=O)n1cc(F)c(=O)[nH]c1=O [Example 5, 5-Fluoro-3,4-dihydro-N-[2-[[2-(isopropyldimethylsilyl)ethyl]thio]ethyl]-2,4-dioxo-1(2H)-pyrimidinecarboxamide]	4 (≈ 11.1 µM)	51	25 to 50	106	≥ 100			34.7	15.4	35.8	> 39.5	7.1	78.4	34.9	83		colon-38 Inhibition ratio (Colon-38 carcinoma; 289 mg/kg/day × 3): 89.8%; B-16 melanoma Inhibition ratio (B-16 melanoma; 300 mg/kg/day × 3): 79.7%; MM-46 adenocarcinoma T/C × 100 (MM-46 adenocarcinoma): 162%; inhibition in vivo at 13.5 mg/kg/day (Lewis lung carcinoma; 13.5 mg/kg/day × 10, 21st day, read-out: Inhibition Ratio weight LLC): 0%; inhibition in vivo at 13.5 mg/kg/day (Lewis lung carcinoma; 13.5 mg/kg/day × 10, lung, 21st day, read-out: Inhibition Ratio metastasis): 19.3%
CCCC[Si](C)(C)CCSCCNC(=O)n1cc(F)c(=O)[nH]c1=O [Example 6, N-[2-[[2-(Butyldimethylsilyl)ethyl]thio]ethyl]-5-fluoro-3,4-dihydro-2,4-dioxo-1(2H)-pyrimidinecarboxamide]	12 (≈ 32 µM)	35	25 to 50	73	50 to 100	53.5		37.3	18.3	30.9	23.1	39.6	92.6	38	95.1		colon-38 Inhibition ratio (Colon-38 carcinoma; 300 mg/kg/day × 3): 81.2%
C[Si](C)(C)CCSCCCNC(=O)n1cc(F)c(=O)[nH]c1=O [Example 8, 5-Fluoro-3,4-dihydro-2,4-dioxo-N-[3-[[2-(trimethylsilyl)ethyl]thio]propyl]-1-(2H)-pyrimidinecarboxamide]	7 (≈ 20.1 µM)	27	25 to 50	70	50 to 100		1360									4.3	inhibition in vivo at 278 mg/kg/day (Colon-38 carcinoma; Mus musculus, 672 h, 278 mg/kg/day × 3, read-out: colon-38 Inhibition ratio): 78%; inhibition in vivo at 13 mg/kg/day (Lewis lung carcinoma; 13 mg/kg/day × 10 + Amputation, 21st day, read-out: Inhibition Ratio weight LLC): 33.3%; inhibition in vivo at 13 mg/kg/day (Lewis lung carcinoma; 13 mg/kg/day × 10 + Amputation, lung, 21st day, printed in parentheses, read-out: Inhibition Ratio metastasis): 18.4%; inhibition in vivo at 13 mg/kg/day (Lewis lung carcinoma; 13 mg/kg/day × 10, 21st day, read-out: Inhibition Ratio weight LLC): 0%; inhibition in vivo at 13 mg/kg/day (Lewis lung carcinoma; 13 mg/kg/day × 10, lung, 21st day, read-out: Inhibition Ratio metastasis): 53%; inhibition in vivo at 26 mg/kg/day (Lewis lung carcinoma; 26 mg/kg/day × 10 + Amputation, 21st day, read-out: Inhibition Ratio weight LLC): 64.9%; inhibition in vivo at 26 mg/kg/day (Lewis lung carcinoma; 26 mg/kg/day × 10 + Amputation, lung, 21st day, printed in parentheses, read-out: Inhibition Ratio metastasis): 33.6%; inhibition in vivo at 26 mg/kg/day (Lewis lung carcinoma; 26 mg/kg/day × 10, 21st day, read-out: Inhibition Ratio weight LLC): 26.2%; inhibition in vivo at 26 mg/kg/day (Lewis lung carcinoma; 26 mg/kg/day × 10, lung, 21st day, read-out: Inhibition Ratio metastasis): 92.5%
C[Si](C)(C)CCCSCCCNC(=O)n1cc(F)c(=O)[nH]c1=O [Example 10, 5-Fluoro-3,4-dihydro-2,4-dioxo-N-[3-[[3-(trimethylsilyl)propyl]thio]propyl]-1(2H)-pyrimidinecarboxamide]	10 (≈ 27.7 µM)	49	25 to 50	111	≥ 100		2170									15.2	inhibition in vivo at 289 mg/kg/day (Colon-38 carcinoma; Mus musculus, 672 h, 289 mg/kg/day × 3, read-out: colon-38 Inhibition ratio): 89.5%; inhibition in vivo at 125 mg/kg/day (B-16 melanoma; Mus musculus, B16, 504 h, 125 mg/kg/day × 3, read-out: B-16 melanoma Inhibition ratio): 38.1%
